Values joined by “and” are separate entries in the source; they are usually repeats but may differ in a detail not shown here. Identical values can stand only once. Records with an inconclusive call do not appear.
Test system: Lewis lung carcinoma i.m., BDF1 mice, T/C %
Experiment: NCI In Vivo Anticancer Drug Screen. Data for tumor model Lewis Lung Carcinoma (intramuscular) in B6D2F1 (BDF1) mice
Summary of the method: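 Tumour-bearing mice were dosed with compound, and either their survival or their tumour size was measured. Results were expressed relative to vehicle-treated controls as T/C.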

[1] = endpoint: mean tumor weight (est.), dose: 2.0 mg/kg/injection, schedule: Q01DX011 (ip), vehicle: saline with Tween-80, higher = larger tumour
[2] = endpoint: median survival time, dose: 2.0 mg/kg/injection, schedule: Q01DX011 (ip), vehicle: saline with Tween-80, higher = longer survival

With `Nc1nc2c(c(=O)[nH]1)NC(CCNc1ccc(C(=O)NC(CCC(=O)O)C(=O)O)cc1)CN2` (configuration not stated) the T/C (endpoint: mean tumor weight (est.), dose: 3.13 mg/kg/injection, schedule: Q01DX011 (ip), vehicle: other, higher = larger tumour) was 112 % of control, the T/C (endpoint: mean tumor weight (est.), dose: 6.25 mg/kg/injection, schedule: Q01DX011 (ip), vehicle: other, higher = larger tumour) was 81 % of control and the T/C (endpoint: mean tumor weight (est.), dose: 12.5 mg/kg/injection, schedule: Q01DX011 (ip), vehicle: other, higher = larger tumour) was 104 % of control. For the same compound, the T/C (endpoint: mean tumor weight (est.), dose: 25.0 mg/kg/injection, schedule: Q01DX011 (ip), vehicle: other, higher = larger tumour) was 99 % of control, the T/C (endpoint: mean tumor weight (est.), dose: 50.0 mg/kg/injection, schedule: Q01DX011 (ip), vehicle: other, higher = larger tumour) was 68 % of control and the T/C (endpoint: mean tumor weight (est.), dose: 100.0 mg/kg/injection, schedule: Q01DX011 (ip), vehicle: other, higher = larger tumour) was 63 % of control. For the same compound, the T/C (endpoint: mean tumor weight, dose: 6.25 mg/kg/injection, schedule: Q01DX011 (ip), vehicle: other, higher = larger tumour) was 100 % of control, the T/C (endpoint: mean tumor weight, dose: 25.0 mg/kg/injection, schedule: Q01DX011 (ip), vehicle: other, higher = larger tumour) was 101 % of control and the T/C (endpoint: mean tumor weight, dose: 50.0 mg/kg/injection, schedule: Q01DX011 (ip), vehicle: other, higher = larger tumour) was 78 % of control. For the same compound, the T/C (endpoint: mean tumor weight, dose: 100.0 mg/kg/injection, schedule: Q01DX011 (ip), vehicle: other, higher = larger tumour) was 68 % of control, the T/C (endpoint: median survival time, dose: 6.25 mg/kg/injection, schedule: Q01DX011 (ip), vehicle: other, higher = longer survival) was 94 % of control and the T/C (endpoint: median survival time, dose: 12.5 mg/kg/injection, schedule: Q01DX011 (ip), vehicle: other, higher = longer survival) was 103 % of control. The T/C (endpoint: median survival time, dose: 25.0 mg/kg/injection, schedule: Q01DX011 (ip), vehicle: other, higher = longer survival) was 98 % of control and the T/C (endpoint: median survival time, dose: 100.0 mg/kg/injection, schedule: Q01DX011 (ip), vehicle: other, higher = longer survival) was 108 % of control.

With `Cc1cc2c3ccc(C)[n+](C)c3ccc2n1C` the T/C (endpoint: mean tumor weight (est.), dose: 0.6 mg/kg/injection, schedule: Q01DX011 (ip), vehicle: saline, higher = larger tumour) was 81 % of control, the T/C (endpoint: mean tumor weight (est.), dose: 1.25 mg/kg/injection, schedule: Q01DX011 (ip), vehicle: saline, higher = larger tumour) was 59 % of control and the T/C (endpoint: mean tumor weight (est.), dose: 2.5 mg/kg/injection, schedule: Q01DX011 (ip), vehicle: saline, higher = larger tumour) was 110 % of control.

`Cc1c(N)nc(C(CC(N)=O)NCC(N)C(N)=O)nc1C(=O)NC(C(=O)NC(C)C(O)C(C)C(=O)NC(C(=O)NCCc1nc(-c2nc(C(=O)NCCCNCCCCN)cs2)cs1)C(C)O)C(OC1OC(CO)C(O)C(O)C1OC1OC(CO)C(O)C(OC(N)=O)C1O)c1cnc[nH]1` (configuration not stated) was tested, and the T/C (endpoint: median survival time, dose: 3.9 mg/kg/injection, schedule: Q01DX011 (ip), vehicle: saline, higher = longer survival) was 120 % of control, the T/C (endpoint: median survival time, dose: 10.8 mg/kg/injection, schedule: Q01DX011 (ip), vehicle: saline, higher = longer survival) was 150 % of control and the T/C (endpoint: median survival time, dose: 18.0 mg/kg/injection, schedule: Q01DX011 (ip), vehicle: saline, higher = longer survival) was 152 % of control.

In the case of `CCCCC(CCC)(CCN)CCCC`, the T/C (endpoint: mean tumor weight (est.), dose: 1.0 mg/kg/injection, schedule: Q01DX011 (ip), vehicle: saline with Tween-80, higher = larger tumour) is reported as 90 % of control, the T/C [1] is reported as 97 % of control and the T/C (endpoint: mean tumor weight (est.), dose: 4.0 mg/kg/injection, schedule: Q01DX011 (ip), vehicle: saline with Tween-80, higher = larger tumour) is reported as 102 % of control. For the same compound, the T/C (endpoint: mean tumor weight (est.), dose: 8.0 mg/kg/injection, schedule: Q01DX011 (ip), vehicle: saline with Tween-80, higher = larger tumour) was 69 % of control, the T/C (endpoint: median survival time, dose: 1.0 mg/kg/injection, schedule: Q01DX011 (ip), vehicle: saline with Tween-80, higher = longer survival) was 103 % of control and the T/C [2] was 92 % of control. For the same compound, the T/C (endpoint: median survival time, dose: 4.0 mg/kg/injection, schedule: Q01DX011 (ip), vehicle: saline with Tween-80, higher = longer survival) was 94 % of control and the T/C (endpoint: median survival time, dose: 8.0 mg/kg/injection, schedule: Q01DX011 (ip), vehicle: saline with Tween-80, higher = longer survival) was 92 % of control.

In the case of `CS(=O)(=O)OCCCNCCCOS(C)(=O)=O`, the T/C (endpoint: median survival time, dose: 10.0 mg/kg/injection, schedule: Q01DX011 (ip), vehicle: saline, higher = longer survival) is reported as 110 % of control and 113 % of control and 119 % of control, the T/C (endpoint: median survival time, dose: 20.0 mg/kg/injection, schedule: Q01DX011 (ip), vehicle: saline, higher = longer survival) is reported as 109 % of control and the T/C (endpoint: median survival time, dose: 40.0 mg/kg/injection, schedule: Q01DX011 (ip), vehicle: saline, higher = longer survival) is reported as 92 % of control and 107 % of control.

For `CN1C=c2c3c(ccc2=C2C=CC4C=C5OCOC5=CC4=C21)OCO3` (configuration not stated), the T/C (endpoint: mean tumor weight (est.), dose: 7.5 mg/kg/injection, schedule: Q01DX011 (ip), vehicle: saline with Tween-80, higher = larger tumour) was 78 % of control, the T/C (endpoint: mean tumor weight (est.), dose: 15.0 mg/kg/injection, schedule: Q01DX011 (ip), vehicle: saline with Tween-80, higher = larger tumour) was 51 % of control and the T/C (endpoint: median survival time, dose: 7.5 mg/kg/injection, schedule: Q01DX011 (ip), vehicle: saline with Tween-80, higher = longer survival) was 122 % of control. The T/C (endpoint: median survival time, dose: 15.0 mg/kg/injection, schedule: Q01DX011 (ip), vehicle: saline with Tween-80, higher = longer survival) was 100 % of control.

For `Cc1cc(C)c(C(=O)CC(=O)c2cccnc2)c(C)c1`, the T/C (endpoint: mean tumor weight (est.), dose: 8.75 mg/kg/injection, schedule: Q01DX011 (ip), vehicle: other, higher = larger tumour) was 69 % of control, the T/C (endpoint: mean tumor weight (est.), dose: 17.5 mg/kg/injection, schedule: Q01DX011 (ip), vehicle: other, higher = larger tumour) was 70 % of control and the T/C (endpoint: mean tumor weight (est.), dose: 35.0 mg/kg/injection, schedule: Q01DX011 (ip), vehicle: other, higher = larger tumour) was 93 % of control. For the same compound, the T/C (endpoint: mean tumor weight (est.), dose: 70.0 mg/kg/injection, schedule: Q01DX011 (ip), vehicle: other, higher = larger tumour) was 83 % of control, the T/C (endpoint: median survival time, dose: 8.75 mg/kg/injection, schedule: Q01DX011 (ip), vehicle: other, higher = longer survival) was 92 % of control and the T/C (endpoint: median survival time, dose: 17.5 mg/kg/injection, schedule: Q01DX011 (ip), vehicle: other, higher = longer survival) was 106 % of control. The T/C (endpoint: median survival time, dose: 35.0 mg/kg/injection, schedule: Q01DX011 (ip), vehicle: other, higher = longer survival) was 106 % of control and the T/C (endpoint: median survival time, dose: 70.0 mg/kg/injection, schedule: Q01DX011 (ip), vehicle: other, higher = longer survival) was 94 % of control.

For `OCN(CO)c1nc(N(CO)CO)nc(N(CO)CO)n1`, the T/C (endpoint: mean tumor weight (est.), dose: 25.0 mg/kg/injection, schedule: Q01DX011 (ip), vehicle: saline with Tween-80, higher = larger tumour) was 112 % of control, the T/C (endpoint: mean tumor weight (est.), dose: 50.0 mg/kg/injection, schedule: Q01DX011 (ip), vehicle: saline with Tween-80, higher = larger tumour) was 85 % of control and the T/C (endpoint: mean tumor weight (est.), dose: 100.0 mg/kg/injection, schedule: Q01DX011 (ip), vehicle: saline with Tween-80, higher = larger tumour) was 116 % of control. The T/C (endpoint: mean tumor weight (est.), dose: 200.0 mg/kg/injection, schedule: Q01DX011 (ip), vehicle: saline with Tween-80, higher = larger tumour) was 120 % of control and the T/C (endpoint: mean tumor weight (est.), dose: 400.0 mg/kg/injection, schedule: Q01DX011 (ip), vehicle: saline with Tween-80, higher = larger tumour) was 73 % of control.

In the case of `CCCCCCCCCCCCCCCC(=O)OCC1OC(n2ccc(N)nc2=O)C(O)C1O` (configuration not stated), the T/C (endpoint: mean tumor weight (est.), dose: 7.5 mg/kg/injection, schedule: Q01DX009 (ip), vehicle: saline, higher = larger tumour) is reported as 76 % of control, the T/C (endpoint: mean tumor weight (est.), dose: 15.0 mg/kg/injection, schedule: Q01DX009 (ip), vehicle: saline, higher = larger tumour) is reported as 39 % of control and the T/C (endpoint: mean tumor weight (est.), dose: 25.0 mg/kg/injection, schedule: Q04DX003 (ip), vehicle: saline, higher = larger tumour) is reported as 67 % of control. The T/C (endpoint: mean tumor weight (est.), dose: 37.5 mg/kg/injection, schedule: Q01DX001 (ip), vehicle: saline, higher = larger tumour) was 45 % of control, the T/C (endpoint: mean tumor weight (est.), dose: 50.0 mg/kg/injection, schedule: Q04DX003 (ip), vehicle: saline, higher = larger tumour) was 19 % of control and the T/C (endpoint: mean tumor weight (est.), dose: 75.0 mg/kg/injection, schedule: Q01DX001 (ip), vehicle: saline, higher = larger tumour) was 19 % of control. The T/C (endpoint: mean tumor weight (est.), dose: 150.0 mg/kg/injection, schedule: Q01DX001 (ip), vehicle: saline, higher = larger tumour) was 46 % of control, the T/C (endpoint: median survival time, dose: 37.5 mg/kg/injection, schedule: Q01DX001 (ip), vehicle: saline, higher = longer survival) was 93 % of control and the T/C (endpoint: median survival time, dose: 150.0 mg/kg/injection, schedule: Q01DX001 (ip), vehicle: saline, higher = longer survival) was 113 % of control.

`c1ccc(-c2csc3c4ccccc4c4ccccc4[n+]23)cc1` was tested, and the T/C (endpoint: mean tumor weight (est.), dose: 0.5 mg/kg/injection, schedule: Q01DX011 (ip), vehicle: saline with Tween-80, higher = larger tumour) was 102 % of control, the T/C [1] was 61 % of control and the T/C (endpoint: median survival time, dose: 0.5 mg/kg/injection, schedule: Q01DX011 (ip), vehicle: saline with Tween-80, higher = longer survival) was 89 % of control. The T/C [2] was 93 % of control.

For `COc1cc([C@@H]2c3cc4c(cc3[C@@H](OC3OC5COC(C)OC5C(O)C3O)[C@H]3COC(=O)[C@H]23)OCO4)cc(OC)c1O` (some centres not stated), the T/C (endpoint: mean tumor weight (est.), dose: 0.25 mg/kg/injection, schedule: Q01DX011 (ip), vehicle: saline, higher = larger tumour) was 72 % of control, the T/C (endpoint: mean tumor weight (est.), dose: 0.5 mg/kg/injection, schedule: Q01DX011 (ip), vehicle: saline, higher = larger tumour) was 67 % of control and the T/C (endpoint: mean tumor weight (est.), dose: 1.0 mg/kg/injection, schedule: Q01DX011 (ip), vehicle: saline, higher = larger tumour) was 79 % of control. For the same compound, the T/C (endpoint: mean tumor weight (est.), dose: 2.0 mg/kg/injection, schedule: Q01DX011 (ip), vehicle: saline, higher = larger tumour) was 74 % of control, the T/C (endpoint: mean tumor weight (est.), dose: 4.0 mg/kg/injection, schedule: Q01DX011 (ip), vehicle: saline, higher = larger tumour) was 43 % of control and the T/C (endpoint: mean tumor weight (est.), dose: 5.0 mg/kg/injection, schedule: Q01DX011 (ip), vehicle: saline, higher = larger tumour) was 105 % of control. The T/C (endpoint: median survival time, dose: 0.25 mg/kg/injection, schedule: Q01DX011 (ip), vehicle: saline, higher = longer survival) was 96 % of control, the T/C (endpoint: median survival time, dose: 0.5 mg/kg/injection, schedule: Q01DX011 (ip), vehicle: saline, higher = longer survival) was 98 % of control and the T/C (endpoint: median survival time, dose: 1.0 mg/kg/injection, schedule: Q01DX011 (ip), vehicle: saline, higher = longer survival) was 96 % of control. The T/C (endpoint: median survival time, dose: 2.0 mg/kg/injection, schedule: Q01DX011 (ip), vehicle: saline, higher = longer survival) was 107 % of control and the T/C (endpoint: median survival time, dose: 4.0 mg/kg/injection, schedule: Q01DX011 (ip), vehicle: saline, higher = longer survival) was 101 % of control.
